SMILES strings stand for the structures.

The melting point is the temperature, or range, at which the solid turns liquid. For the compound `CCS(=O)(=O)O.CCS(=O)(=O)O.O=C(N[C@@H](c1ccccc1)c1ccccn1)c1cnc2cc(NC(=O)c3ccccc3-c3ccc(C(F)(F)F)cc3)ccc2c1` [Example 2D, (S)-7-[(4′-Trifluoromethyl-biphenyl-2-carbonyl)-amino]-quinoline-3-carboxylic acid (phenyl-pyridin-2-yl-methyl)-amide, bis-ethanesulfonate], the melting point was found to be 158 °C.

The values are drawn from patent publication US6369075B1, “7[4′-trifluoromethyl-biphenyl-2-carbonyl)amino]-quinoline-3-carboxylic acid amides, and method of inhibiting the secretion of apolipoprotein B” (Pfizer, Inc., priority 1999, dated 2002).
